Data set [1] can be described thus: Dissolution of isolated fractions in solvent. Type of data set: physicochemical. The method, then: Compounds 1–4 were isolated using mass-guided fractionation on preparative HPLC from 29.4 g dry mass of lyophilizated cyanobacteria from 10 L of culture. For the first purification step, the compounds were separated using a C18 reversed phase column. The collected fractions were reduced to dryness at 40°C in vacuo. […] The yields were: 1: 9.8 mg; 2: 4.1 mg; 3: 5.9 mg; 4: 2.6 mg.

Another data set concerns trypsin. To be noted: ref Pluotno and Carmeli, 2005; cited from earlier work. The text has this:
(§1) Compounds 5 and 6 were originally isolated via bioassay guided purification using a serine-protease inhibition assay when they were discovered in 2005 ([Pluotno and Carmeli, 2005]). The two banyasides were reported to inhibit the catalytic activity of trypsin. As far as we know, anti-bacterial activity of suomilide have not been reported previously, and the Nostoc sp. strain it has been isolated from was reported as non-toxic. This complies with our results, as no activity could be detected for 1–4 against bacteria or cell lines at high concentrations. Suomilide A has recently been investigate ...

Data set [2] deals with cancer cell proliferation. To be noted: ref Ahmed et al., 2021; cited from earlier work.
Text: as §1

The next data set relates to prostate cancer cells. The note with it: concentration of 3.3 μM; ref Ahmed et al., 2021; cited from earlier work.
Text: as §1

Another data set deals with trypsin-1. To be noted: ref Ahmed et al., 2021; read-out: IC50 trypsin-1 inhibition; cited from earlier work.
Text: as §1

For another data set, the system named is trypsin-2. To be noted: ref Ahmed et al., 2021; read-out: IC50 trypsin-2 inhibition; cited from earlier work.
Text: as §1

For the next data set, the system named is trypsin-3. The note with it: ref Ahmed et al., 2021, cited from earlier work.
Text: as §1

By IC50 is commonly meant the concentration at which inhibition is half-maximal.

Regarding Suomilide B [Compound 1], in data set [1] (dried HPLC fraction dissolved in DMSO, after extensive shaking), the “solubility in DMSO (qualitative)” value was “well”. Also, the “solubility in methanol (qualitative)” value in data set [1] (dried HPLC fraction dissolved in methanol) is “dissolved poorly”.

Turning to banyaside A [Compound 5], the “inhibition of the catalytic activity of trypsin” value in the data set on trypsin is listed as “inhibit”.

In the case of banyaside B [Compound 6], the “inhibition of the catalytic activity of trypsin” value in the data set on trypsin was “inhibit”.

For suomilide [Suomilide A], in data set [2], the “effect on cancer cell proliferation” value was “no effect”. For the same substance, the “inhibition of invasion of prostate cancer cells” value with prostate cancer cells is recorded as “inhibit the invasion”. Also, the IC50 was 0.104 µM in the data set with trypsin-1, 0.0047 µM with trypsin-2 and 0.0115 µM with trypsin-3 (read-out: IC50 trypsin-3 inhibition). Besides, the residence time in the data set on trypsin-3 (surface plasmon resonance spectroscopy) is recorded as 57 min.

The record behind these values is paper PMC10157211, “Four new suomilides isolated from the cyanobacterium Nostoc sp. KVJ20 and proposal of their biosynthetic origin” (Frontiers in Microbiology, 2023).
